Results published in ChEMBL document CHEMBL2074200, “Reversal of P-glycoprotein-mediated MDR by 5,7,3',4',5'-pentamethoxyflavone and SAR” (Biochem Biophys Res Commun, 2004).

Molecular target: ATP-dependent translocase ABCB1 (Homo sapiens, UniProt P08183)
Experiment: TP_TRANSPORTER: increase in Rhodamine 123 intracellular accumulation in AML-2/D100 cells
Assay type: functional, cell-based

ATP-dependent translocase ABCB1, sequence (P08183 whole entry): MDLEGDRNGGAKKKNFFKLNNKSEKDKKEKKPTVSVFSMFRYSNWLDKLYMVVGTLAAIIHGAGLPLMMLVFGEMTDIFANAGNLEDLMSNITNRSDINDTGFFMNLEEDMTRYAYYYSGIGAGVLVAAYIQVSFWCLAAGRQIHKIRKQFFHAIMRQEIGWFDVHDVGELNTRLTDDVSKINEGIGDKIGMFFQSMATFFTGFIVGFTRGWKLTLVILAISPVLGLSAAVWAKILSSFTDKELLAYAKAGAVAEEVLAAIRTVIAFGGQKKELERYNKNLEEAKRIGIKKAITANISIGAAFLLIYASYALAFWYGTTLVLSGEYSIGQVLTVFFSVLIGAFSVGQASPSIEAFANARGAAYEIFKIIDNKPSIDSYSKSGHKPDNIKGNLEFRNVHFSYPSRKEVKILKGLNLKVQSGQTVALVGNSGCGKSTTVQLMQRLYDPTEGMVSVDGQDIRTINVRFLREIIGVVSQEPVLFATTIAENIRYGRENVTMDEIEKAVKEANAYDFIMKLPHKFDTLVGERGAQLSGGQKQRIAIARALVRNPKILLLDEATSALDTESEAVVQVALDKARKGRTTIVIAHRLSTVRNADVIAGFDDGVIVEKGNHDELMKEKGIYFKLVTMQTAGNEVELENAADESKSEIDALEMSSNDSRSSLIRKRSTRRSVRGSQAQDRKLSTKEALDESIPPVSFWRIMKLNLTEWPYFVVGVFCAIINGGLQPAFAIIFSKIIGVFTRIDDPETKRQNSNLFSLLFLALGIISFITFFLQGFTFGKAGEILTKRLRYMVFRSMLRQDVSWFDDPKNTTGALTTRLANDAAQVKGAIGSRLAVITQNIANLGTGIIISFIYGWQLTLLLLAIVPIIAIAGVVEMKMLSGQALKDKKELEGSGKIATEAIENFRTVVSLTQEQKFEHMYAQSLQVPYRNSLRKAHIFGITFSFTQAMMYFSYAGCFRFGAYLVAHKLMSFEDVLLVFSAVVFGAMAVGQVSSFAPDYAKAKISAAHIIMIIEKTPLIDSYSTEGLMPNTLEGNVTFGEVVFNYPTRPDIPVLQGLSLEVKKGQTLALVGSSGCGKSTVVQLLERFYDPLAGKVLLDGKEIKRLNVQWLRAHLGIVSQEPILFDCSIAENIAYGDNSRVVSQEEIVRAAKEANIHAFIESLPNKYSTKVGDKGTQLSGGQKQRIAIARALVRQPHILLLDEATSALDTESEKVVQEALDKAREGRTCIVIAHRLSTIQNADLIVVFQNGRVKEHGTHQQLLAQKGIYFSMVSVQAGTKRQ

Activity: inhibitor [+]
SMILES: COc1cc(OC)c2c(=O)cc(-c3cc(OC)c(OC)c(OC)c3)oc2c1
